Data on 7 compounds can be found in PubChem BioAssay (NCI).

As usually defined, the GI50 is the concentration at which growth is held to half of that of the control. As usually defined, the TGI is the concentration giving total growth inhibition.

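A five-concentration, 48-hour dose response in 96-well plates underlies each endpoint, interpolated linearly between surrounding concentrations. Here, GI50 denotes the concentration required for 50% inhibition of growth. Definition used: TGI = concentration required for complete inhibition of growth.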

Among the test systems are KM12 colon; CAKI-1 renal; UACC-62 melanoma; NCI-H460 lung; RXF 393 renal; OVCAR-5 ovarian; MDA-MB-435; UO-31 renal; COLO 205 colon; M14 melanoma.
Holding throughout (test): DTP human tumour cell line panel, 48 h

Take `COc1cc(NS(C)(=O)=O)ccc1Nc1c2ccc(Cl)cc2nc2c(OC)cccc12`: the concentration for 50% growth inhibition (GI50) was 0.268 µM in the assay with KM12 colon; 0.0316 µM in the assay with CAKI-1 renal; 0.189 µM in the assay with UACC-62 melanoma; 0.411 µM in the assay on RXF 393 renal; 1.59 µM in the assay with OVCAR-5 ovarian; 0.913 µM with MDA-MB-435. Moreover, the figures for the concentration for 50% growth inhibition (GI50) in the assay with UO-31 renal, with COLO 205 colon and in the assay on M14 melanoma were 0.0466 µM, 0.182 µM and 0.146 µM, respectively. Besides, the TGI amounted to 1.81 µM in the assay with KM12 colon; 1.87 µM in the assay on CAKI-1 renal; 2.96 µM with UACC-62 melanoma; 1.37 µM with NCI-H460 lung; 3.04 µM in the assay on RXF 393 renal; 23.3 µM with OVCAR-5 ovarian. The TGI in the assay with MDA-MB-435 amounted to 16 µM; with UO-31 renal, 0.698 µM; in the assay on COLO 205 colon it was 2.35 µM; with M14 melanoma, 1.83 µM.
In the case of `COc1cc(C(=O)c2ccc3c(c2)OCO3)cc(OC)c1OC`, the GI50 is 0.656 µM in the assay with KM12 colon; 1.88 µM with CAKI-1 renal; 2.62 µM in the assay with UACC-62 melanoma; 2.55 µM with NCI-H460 lung; 2.88 µM in the assay with RXF 393 renal; 8.96 µM with OVCAR-5 ovarian. Also, the GI50 in the assay on MDA-MB-435 is 0.2 µM; with UO-31 renal it was 2.93 µM; in the assay on COLO 205 colon, 1.37 µM; in the assay with M14 melanoma, 1.2 µM. In addition, the TGI is 80.8 µM in the assay on KM12 colon; > 27.4 µM in the assay with CAKI-1 renal; > 100 µM in the assay on UACC-62 melanoma; > 100 µM with NCI-H460 lung; 17.1 µM with RXF 393 renal; > 100 µM in the assay on OVCAR-5 ovarian. For the same compound, the TGI with MDA-MB-435 is 0.502 µM; in the assay on UO-31 renal it was 38.2 µM; in the assay with COLO 205 colon, 6.2 µM; in the assay on M14 melanoma, > 100 µM.
Regarding `Cc1cc2c(cc1Cl)SC1=CC(=O)N(c3ccccc3)C1=NS2(=O)=O`, the GI50 in the assay with KM12 colon was 26.1 µM; with CAKI-1 renal, > 100 µM; with UACC-62 melanoma, 33 µM; in the assay on NCI-H460 lung, 59.5 µM; in the assay on RXF 393 renal it was > 100 µM; in the assay with OVCAR-5 ovarian, > 100 µM. Further, the GI50 in the assay on MDA-MB-435 was > 100 µM; in the assay with UO-31 renal, 54 µM; in the assay with COLO 205 colon, 26.4 µM; in the assay on M14 melanoma, 21 µM. Further, the total growth inhibition concentration (TGI) with KM12 colon was 67.3 µM; in the assay with CAKI-1 renal, > 100 µM; in the assay on UACC-62 melanoma, > 100 µM; with NCI-H460 lung it was > 100 µM; in the assay on RXF 393 renal, > 100 µM; in the assay with OVCAR-5 ovarian it was > 100 µM. Besides, the total growth inhibition concentration (TGI) in the assay with MDA-MB-435 was > 100 µM; in the assay on UO-31 renal, > 100 µM; in the assay on COLO 205 colon, 67 µM; in the assay with M14 melanoma, 42.8 µM.
Regarding `C=C1C(=O)O[C@H]2[C@H]1CC/C(COC(=O)CCCCC(=O)OC/C1=C/CC[C@@]3(C)O[C@H]3[C@H]3OC(=O)C(=C)[C@@H]3CC1)=C\CC[C@@]1(C)O[C@@H]21`, the GI50 was 2.94 µM in the assay with KM12 colon; 1.7 µM in the assay on UACC-62 melanoma; 3.52 µM in the assay on NCI-H460 lung; 0.967 µM in the assay with RXF 393 renal; 2.32 µM in the assay on OVCAR-5 ovarian; 2.39 µM in the assay on MDA-MB-435. The GI50 is 1.41 µM in the assay on UO-31 renal, 1.29 µM with COLO 205 colon and 1.95 µM in the assay on M14 melanoma. Further, the concentration for total growth inhibition (TGI) in the assay on KM12 colon amounted to 12.4 µM; in the assay on UACC-62 melanoma, 4.04 µM; in the assay with NCI-H460 lung, 25.5 µM; with RXF 393 renal it was 2.31 µM; in the assay with OVCAR-5 ovarian it was 5.94 µM; with MDA-MB-435, 8.04 µM. For the same compound, the TGI was determined as 4.57 µM in the assay with UO-31 renal, 3.31 µM in the assay with COLO 205 colon and 5.31 µM in the assay on M14 melanoma.
With `CC(=O)N1N=C2/C(=C/c3ccccc3)CC(C)CC2C1c1ccccc1` (centres undefined), the GI50 in the assay with KM12 colon was 12.4 µM; in the assay on CAKI-1 renal it was 19.1 µM; in the assay on UACC-62 melanoma it was 12.6 µM; in the assay with NCI-H460 lung it was 13 µM; with RXF 393 renal it was 25.6 µM; with OVCAR-5 ovarian it was 17.7 µM. For the same compound, the GI50 in the assay with MDA-MB-435 is 11.2 µM; with UO-31 renal, 12.8 µM; in the assay with COLO 205 colon, 16.5 µM. The concentration for total growth inhibition (TGI) with KM12 colon was 33.9 µM; in the assay with CAKI-1 renal it was 41.8 µM; in the assay on UACC-62 melanoma, 26 µM; in the assay with NCI-H460 lung, 27.8 µM; with RXF 393 renal it was > 100 µM; with OVCAR-5 ovarian it was 32.2 µM. The TGI came out at 27.7 µM in the assay on MDA-MB-435, 31.1 µM in the assay on UO-31 renal and 45.6 µM in the assay with COLO 205 colon.
For `C[C@@H]1CN(C(=O)c2ccc(NC(=O)c3cc(O[C@H](C)c4c(Cl)ccc(F)c4Cl)c(N)nn3)cc2)C[C@H](C)N1`, the GI50 in the assay with KM12 colon was 0.0558 µM; in the assay on UACC-62 melanoma, 1.7 µM; in the assay with NCI-H460 lung, 3.1 µM; with RXF 393 renal, 1.93 µM; in the assay on OVCAR-5 ovarian it was 2.76 µM; with MDA-MB-435 it was 1.88 µM. Besides, the GI50 was 3.26 µM in the assay on UO-31 renal and 1.55 µM with M14 melanoma. Further, the TGI was 13.5 µM in the assay on KM12 colon; 5.24 µM in the assay on UACC-62 melanoma; 13.7 µM with NCI-H460 lung; 5.29 µM with RXF 393 renal; 17.6 µM in the assay on OVCAR-5 ovarian; 16.8 µM in the assay on MDA-MB-435. In addition, the concentration for total growth inhibition (TGI) came to 14 µM in the assay with UO-31 renal and 3.19 µM in the assay with M14 melanoma.
For `Cn1ccnc1C(=O)/C=C/c1ccc(C(=O)Nc2ccc(Cl)cc2)cc1`, the GI50 with CAKI-1 renal was 1.17 µM; in the assay with UACC-62 melanoma, 1.55 µM; with NCI-H460 lung it was 0.747 µM; with RXF 393 renal, 0.836 µM; in the assay with OVCAR-5 ovarian, 1.1 µM; in the assay with MDA-MB-435 it was 1.37 µM. In addition, the GI50 in the assay with UO-31 renal is 0.905 µM; with COLO 205 colon, 1.03 µM; in the assay with M14 melanoma, 0.968 µM. Besides, the TGI is > 33.3 µM with CAKI-1 renal; 7.59 µM in the assay on UACC-62 melanoma; 2 µM with NCI-H460 lung; 2.66 µM with RXF 393 renal; 5.64 µM in the assay on OVCAR-5 ovarian; > 33.3 µM with MDA-MB-435. Further, the TGI in the assay on UO-31 renal is 4.34 µM; in the assay with COLO 205 colon it was > 33.3 µM; in the assay on M14 melanoma it was 4.96 µM.
